# In publication PMC7019360, “Antihypertensive Effects of Virgin Olive Oil (Unfiltered) Low Molecular Weight Peptides with ACE Inhibitory Activity in Spontaneously Hypertensive Rats” (Nutrients, 2020):
# Ends that are not written are not given here. Peptide text beside a SMILES is read from it.
# Target: angiotensin-converting enzyme (ACE) (Homo sapiens, UniProt P12821)
# Experiment: ACE inhibitory activity in vitro (IC50)
# Type: biochemical
# Settings: chemically synthesised peptides, method of ref 35 with modifications of ref 28, mean ± SD, SD, read-out: ACEi Activity IC50 (µm) ± SD
# Description: The ACE inhibitory activity of the samples was studied using the methodology specified in [35], with some modifications. The ACE inhibitory activity is shown as IC50, or the concentration needed to inhibit the activity of the enzyme by 50%.
# angiotensin-converting enzyme (ACE), sequence (P12821 30-1306, species assumed): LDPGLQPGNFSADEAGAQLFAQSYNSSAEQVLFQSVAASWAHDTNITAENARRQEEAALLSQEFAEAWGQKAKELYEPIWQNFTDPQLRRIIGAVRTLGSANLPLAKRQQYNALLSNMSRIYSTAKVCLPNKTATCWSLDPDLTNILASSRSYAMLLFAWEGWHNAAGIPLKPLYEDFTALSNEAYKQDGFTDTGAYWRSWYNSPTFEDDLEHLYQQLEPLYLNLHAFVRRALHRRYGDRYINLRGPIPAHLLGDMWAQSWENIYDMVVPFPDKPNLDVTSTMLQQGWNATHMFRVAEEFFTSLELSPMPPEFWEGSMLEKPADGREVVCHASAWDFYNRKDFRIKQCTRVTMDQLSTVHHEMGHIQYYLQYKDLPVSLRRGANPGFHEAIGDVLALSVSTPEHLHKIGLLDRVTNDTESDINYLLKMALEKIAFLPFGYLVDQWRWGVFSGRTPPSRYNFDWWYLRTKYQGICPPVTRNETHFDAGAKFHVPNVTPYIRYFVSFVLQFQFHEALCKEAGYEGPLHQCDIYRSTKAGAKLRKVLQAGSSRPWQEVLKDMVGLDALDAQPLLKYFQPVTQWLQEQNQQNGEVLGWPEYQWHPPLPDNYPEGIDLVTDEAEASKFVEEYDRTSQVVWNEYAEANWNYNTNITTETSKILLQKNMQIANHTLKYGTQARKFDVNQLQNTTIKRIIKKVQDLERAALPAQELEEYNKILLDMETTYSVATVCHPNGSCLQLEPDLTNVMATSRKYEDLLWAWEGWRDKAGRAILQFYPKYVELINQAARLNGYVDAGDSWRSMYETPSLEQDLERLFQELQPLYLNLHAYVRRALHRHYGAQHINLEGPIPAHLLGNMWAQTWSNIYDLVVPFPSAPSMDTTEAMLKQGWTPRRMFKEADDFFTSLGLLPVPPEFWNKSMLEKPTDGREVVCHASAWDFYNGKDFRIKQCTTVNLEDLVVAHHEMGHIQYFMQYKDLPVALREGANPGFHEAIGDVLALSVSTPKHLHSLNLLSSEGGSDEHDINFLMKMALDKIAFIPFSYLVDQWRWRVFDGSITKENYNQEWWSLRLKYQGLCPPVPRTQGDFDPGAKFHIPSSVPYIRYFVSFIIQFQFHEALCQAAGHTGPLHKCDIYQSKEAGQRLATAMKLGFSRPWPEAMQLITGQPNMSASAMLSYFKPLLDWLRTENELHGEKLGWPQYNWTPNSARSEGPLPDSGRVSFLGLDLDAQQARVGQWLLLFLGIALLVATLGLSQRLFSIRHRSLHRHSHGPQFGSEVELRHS
row,Compound,IC50 [µM]
1,CC(C)C[C@H](NC(=O)[C@H](CC(=O)O)NC(=O)[C@H](CS)NC(=O)CNC(=O)[C@H](CS)NC(=O)CNC(=O)[C@@H](N)Cc1ccc(O)cc1)C(=O)N1CCC[C@H]1C(=O)O [SEQ No.5] (H-YGCGCDLP-OH),3.51 ± 0.21
2,CC(C)C[C@H](NC(=O)[C@@H]1CCCN1C(=O)[C@H](CC(=O)O)NC(=O)[C@H](CS)NC(=O)CNC(=O)[C@H](CS)NC(=O)CNC(=O)[C@@H](N)Cc1ccc(O)cc1)C(=O)O [SEQ No.6] (H-YGCGCDPL-OH),1.64 ± 0.02
3,C[C@H](NC(=O)[C@H](C)NC(=O)[C@@H](N)Cc1c[nH]c2ccccc12)C(=O)NCC(=O)N[C@@H](Cc1ccc(O)cc1)C(=O)N[C@@H](CS)C(=O)N[C@@H](CS)C(=O)O [SEQ No.8] (H-WAAGYCC-OH),6.88 ± 0.3
4,EECHAH [SEQ No.9],11.8 ± 1.99
5,LALAPTN [SEQ No.14],135 ± 13.5

# Next, values leading:
row,IC50 [µM],Compound
1,0.84 ± 0.02,N=C(N)NCCC[C@H](N)C(=O)N[C@@H](CC(=O)O)C(=O)NCC(=O)NCC(=O)N[C@@H](Cc1ccc(O)cc1)C(=O)N[C@@H](CS)C(=O)N[C@@H](CS)C(=O)O [SEQ No.1] (H-RDGGYCC-OH)
2,1.85 ± 0.16,CC(C)C[C@H](N)C(=O)N[C@@H](CCC(=O)O)C(=O)N[C@@H](CCC(=O)O)C(=O)N[C@@H](Cc1ccccc1)C(=O)N[C@@H](CS)C(=O)N[C@@H](CS)C(=O)O [SEQ No.2] (H-LEEFCC-OH)
3,2.58 ± 0.26,C[C@@H](O)[C@H](NC(=O)[C@H](CC(N)=O)NC(=O)[C@H](CS)NC(=O)CNC(=O)[C@H](CS)NC(=O)[C@@H](N)Cc1c[nH]cn1)C(=O)N[C@@H](Cc1c[nH]cn1)C(=O)O [SEQ No.3] (H-HCGCNTH-OH)
4,39.6 ± 2.09,CC(C)[C@H](NC(=O)[C@H](C)NC(=O)[C@H](CC(N)=O)NC(=O)CNC(=O)[C@H](CS)NC(=O)[C@@H](N)CS)C(=O)N1CCC[C@H]1C(=O)N[C@@H](CCC(N)=O)C(=O)O [SEQ No.4] (H-CCGNAVPQ-OH)
5,305 ± 10.9,LALSAPVP [SEQ No.16]
6,107 ± 14.7,LEFTSSY [SEQ No.12]
7,230 ± 36.5,RPVPPVF [SEQ No.15]
8,3.2 ± 0.23,YMHCYF [SEQ No.7]

# Same assay, conditions: chemically synthesised peptides, method of ref 35 with modifications of ref 28, mean ± SD, read-out: ACEi Activity IC50 (µm) ± SD
row,IC50 [µM],Compound
1,> 405,EAPGGYDD [SEQ No.19]
2,> 390,KRRPPTT [SEQ No.18]
3,> 480,MSMAPY [SEQ No.23]
4,> 460,YEAYPS [SEQ No.21]

# Tested on: spontaneously hypertensive rats (SHR)
# Experiment: Antihypertensive activity in SHR, tail-cuff SBP after acute oral administration
# Type: in vivo, rat
# Settings: oral Captopril 50 mg/kg BW, at 24 h
# Description: The antihypertensive effect of synthetic peptides No. 1 (RDGGYCC), No. 2 (LEEFCC), No. 3 (HCGCNTH) and No. 4 (CCGNAVPQ) was studied on the systolic blood pressure (SBP) and diastolic blood pressure (DBP) using the spontaneously hypertensive rat (SHR) animal model of hypertension. The tail-cuff method was used to measure SBP and DBP [36] as described in [28]. We selected a dose of synthetic peptides in the range described in previous studies of antihypertensive effects of peptides with ACE inhibitory activity. SBP and DBP data was always collected by the same technician. A period of training of two weeks was set to allow the animals to be habituated to this methodology. Forty-eight male SHR (age 19–21 weeks) were used. The average BW of the animals was 322.0 ± 6.0 g. The synthetic peptides were dissolved in water and were administered orally to the animals (about 1 mL per animal). The ACE inhibitor drug Captopril (Sigma, St. Louis, MO, USA) was used as a positive control and water was used as a negative control. The SHR were distributed randomly into 6 study groups (n = 8 per group) and received an oral dose of one of the four synthetic peptides (25 mg/kg of BW), or a dose of Captopril (50 mg/kg of BW) or water (1 mL). SBP and DBP were measured in the rats at baseline (time 0) and at 2, 4, 8 and 24 h post-administration of the peptides or controls. […]
row,Compound,Time course of the antihypertensive effect (SBP)
1,C[C@H](CS)C(=O)N1CCC[C@H]1C(=O)O [Captopril],returned to basal levels

# Tested on: not listed separately
# Experiment: Water solubility of synthetic peptide
# Type: physicochemical
# Settings: reason why the ACE activity was not determined
row,Water solubility,Compound
1,not water soluble,"LQFCCY [SEQ No.17, synthetic peptide LQFCCY from olive oil extract]"

# Tested on: ACE
# Experiment: not given
# Settings: bovine casein-derived peptide; cited from earlier work
# Description: The process of development of high blood pressure in humans presents analogies with the development of hypertension in SHR. For this reason, the SHR model has been extensively used in the evaluation of food peptides with antihypertensive potential. […] It contains four dipeptides (DG, GG, GY, DG) with previously reported activity, h ...
row,Compound,In vitro ACE inhibitory activity
1,KVLPVPQ,low in vitro ACE inhibitory activity

# Tested on: SHR
# Experiment: not given
# Settings: bovine casein-derived peptide; cited from earlier work
# Description: The study of ACE inhibitor peptides in foods is a very active area of research and there are a few available data bases with information on peptide sequences and biological activity. We used the BIOPEP data base to assist with our selection of peptides because it uses previous published research providing information about the number of ACE inhibitor motifs of a peptide sequence and calculates the peptide's theoretical activity. Apart from the ACE inhibitory activity, the data base detected additional potential activities of our selected peptides, including antioxidant (Nos. 9 and 11), anti-th ... || The process of development of high blood pressure in humans presents analogies with the development of hypertension in SHR. For this reason, the SHR model has been extensively used in the evaluation of food peptides with antihypertensive potential. […] It contains four dipeptides (DG, GG, GY, DG) with previously reported activity, h ...
row,Compound,SBP reducing effect in SHR
1,KVLPVPQ,high SBP reducing effect
